This note sets out measurements from patent publication US7153653B2, “Differentially methylated sequences in pancreatic cancer” (The Johns Hopkins University School of Medicine, priority 2001, dated 2006).

In assay [1] the test system is Cyclin G expression in pancreatic cancer cell line PL8. Nature of the assay: RT-PCR analysis of Cyclin G expression after 5Aza-dC treatment. Format: cell-based, human. The following applies: methylated cell line PL8, 5Aza-dC at a final concentration of 1 μM for 5 days, coamplified with GAPDH. The protocol: (§1) Five pancreatic cancer cell lines (PL3, PL8, CAPAN2, Panc1, and MiaPaca2) and four normal pancreata were used for RT-PCR analysis. The cell lines were treated with demethylating agent 5Aza-dC (Sigma Chemical Co.) at a final concentration of 1 μM for 5 days. Total RNA was prepared using TRIzol (Life Technologies, Inc.), reverse-transcribed and amplified. As a control for cDNA integrity, glyceraldehyde-3-phosphate dehydrogenase gene (GAPDH) was also amplified. Primer sequences for RT-PCR are listed in Table 3 and are available at http://pathology2.jhu.edu/pancreas/prim0425.htm, which website is incorporated herein by reference.
(§2) Partial methylation (˜50%) of the 5′ CpG island of Cyclin G in PL8 (FIG. 4C) was associated with decreased expression of Cyclin G by RT-PCR. The 5′ CpG island of Cyclin G was not methylated in a panel of normal pancreata. Cyclin G was expressed in 4 normal pancreata by RT-PCFR. […] Thus, hypermethylation of the 5′ CpG islands of Cyclin G and ppENK is coincides with decreased expression in pancreatic cancers.

Assay [2] relates to ppENK expression in pancreatic cancer cell lines PL3, CAPAN2, MiaPaca2 and Panc1. Kind of assay: RT-PCR analysis of ppENK expression after 5Aza-dC treatment. The following applies: 4 methylated cell lines (PL3, CAPAN2, MiaPaca2, Panc1), 5Aza-dC at a final concentration of 1 μM for 5 days, coamplified with GAPDH. Format: cell-based, human. As for the experimental part: as §1, §2

Setting [3] is: listed as 5-aza-2′-deoxycytidine.

Take `Nc1ncn([C@H]2C[C@H](O)[C@@H](CO)O2)c(=O)n1` [5Aza-dC, 5-aza-2′-deoxycytidine]: the figures for the “Cyclin G expression by RT-PCR” value in assay [1], in assay [1] (setting [3]) and in assay [1] (listed as 5 Aza-dC) were “restored the expression of Cyclin G”, “reversible” and “increased Cyclin G expression”, respectively. Moreover, the “ppENK expression by RT-PCR” value is “restored ppENK expression in all 4 cell lines” in assay [2], “reversible” in assay [2] (setting [3]) and “restored the ppENK expression” in assay [2] (listed as 5 Aza-dC).
